Like-named read-outs stand apart in the source and are kept apart here.
T1: human PRLR extracellular domain (hPRLR-MMH) (Homo sapiens, UniProt P16471)
T1 construct: human PRLR extracellular domain expressed with a C-terminal myc-myc-hexahistidine tag; myc-myc-hexahistidine (MMH) (C); made in house
T1 sequence (P16471 25-234 limits assumed): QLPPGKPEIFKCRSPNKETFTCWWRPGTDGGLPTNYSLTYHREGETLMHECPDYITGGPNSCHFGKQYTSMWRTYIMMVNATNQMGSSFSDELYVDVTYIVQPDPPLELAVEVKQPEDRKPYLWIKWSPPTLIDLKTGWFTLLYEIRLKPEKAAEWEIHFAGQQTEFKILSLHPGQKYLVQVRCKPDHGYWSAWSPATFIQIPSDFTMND

B1: H1H6958N2 (antibody, V domains shown)
VH: QVQLVESGGGVVQPGRSLRLSCGASGFTFRNYGMQWVRQGPGKGLEWVTLISFDGNDKYYADSVKGRFTISRDNSKNTLFLQMNSLRTEDTAVYYCARGGDFDYWGQGTLVTVSS
VL: DIQMTQSPSSLSASVGDRVTITCRASQDIRKDLGWYQQKPGKAPKRLIYAASSLHSGVPSRFSGSGSGTEFTLTISSLQPEDFATYYCLQHNSYPMYTFGQGTKLEIK

Legend:
C4-2 (PSMA+) cells = assay: In vitro cytotoxicity assay (CCK8 viability), C4-2 cells; format: cell-based
Description: (§1) In this Example, the ability of various antibody-drug conjugates or their associated payloads to kill antigen-expressing tumor cells in vitro was assessed.
(§2) Ovcar3 (Muc16+) or C4-2 (PSMA+) cells were seeded in 96 well plates at 3000 (C42) cells per well in complete growth media and grown overnight. For cell viability curves, serially diluted conjugates or payloads were added to the cells at final concentrations ranging from 300 nM to 5 pM and incubated for 3 days. To measure viability, cells were incubated with CCK8 (Dojindo) for the final 1-3 hours and the absorbance at 450 nm (OD450) was determined on a Victor (Perkin Elmer). Background OD450 levels determined from digitonin ([…]) treated cells were subtracted from all wells and viability is expressed as a percentage of the untreated controls. IC50 values were determined from a four-parameter logistic equation over a 10-point response curve (GraphPad Prism). All conjugate curves and IC50 values are corrected for payload equivalents.

[1] = tested on: T47D ductal carcinoma line (PRLR+); assay: In vitro cytotoxicity assay (CellTiter-Glo), T47D cells; format: cell-based, human; conditions: for IC50: 5 days, corrected for payload equivalents, read-out: IC50 (cytotoxicity of T47D cells); for maximum percent killing: T47D cells
Description: The present example provides cytotoxicity assays for conjugates provided herein. To evaluate the ability of anti-PRLR antibodies conjugated with 63, 60, 77, and 78 to kill a PRLR expressing cell line, an in vitro cytotoxicity assay using a T47D ductal carcinoma line (ATCC, #HTB-133), which was previously determined to express >27,000 copies of human PRLR at its cell surface, was utilized.
For the assay, T47D cells were seeded onto white 96 well plates at 2,000 cells/well in media containing DMEM supplemented with 10% FBS, NEAA, and pencillin/streptomycinin (complete media). They were grown overnight at 37° C. in 5% CO2. To determine cell viability curves, the following day antibody drug conjugates, unconjugated antibodies, or free payloads were added to the cells at final serial dilutions ranging from 100 nM to 0.01 nM in complete medium and then incubated for an additional 5 days. Luciferase activity was detected after the addition of CellTiter-Glo™ reagent (Promega, G7571) to each well, which contains reagents to lyse the remaining viable cells to release their ATP, ATPase inhibitors to prevent degradation of the ATP, as well as luciferin and luciferase to catalyse the luminescent reaction. Viable cells prior to addition of CellTiter-Glo will be the only source of ATP since the dead cells in culture will not synthesis ATP and any of their released ATP will be destroyed via endogenous ATPases. Relative light units (RLUs) were measured on a Victor luminometer (PerkinElmer) and the results were determined using a four-parameter logistic equation over a 10-point response curve (GraphPad Prism). All measured values and calculated IC50 values were corrected for payload equivalents. All IC50 values are expressed in nM concentration and percent kill is reported for the highest concentration tested.

Ovcar3 (Muc16+) cells = assay: In vitro cytotoxicity assay (CCK8 viability), Ovcar3 cells; format: cell-based
Description: as §1, §2

[2] = biological target: T1, human PRLR extracellular domain (hPRLR-MMH); assay: Surface plasmon resonance (Biacore 3000) binding kinetics; conditions: 25° C.
Description: Equilibrium dissociation constants (KD values) for human PRLR binding to purified anti-PRLR antibodies that were either unmodified H1H6958N2, PRLR-Q, and PRLR-Q-63 were determined using a real-time surface plasmon resonance biosensor using a Biacore 3000 instrument. The Biacore sensor surface was first derivatized by amine coupling with a monoclonal mouse anti-human Fc antibody (GE, #BR-1008-39) to capture anti-PRLR monoclonal antibodies. All binding studies were performed in 0.01M HEPES pH 7.4, 0.15M NaCl, 3 mM EDTA, and 0.05% v/v Surfactant Tween-20 (HBS-ET running buffer) at 25° C. and 37° C. Different concentrations of human PRLR extracellular domain expressed with a C-terminal myc-myc-hexahistidine tag (hPRLR-MMH; SEQ ID NO: 401 as described in patent application WO 2015026907 A1), in HBS-ET running buffer ([…]) were injected over the anti-PRLR antibody captured surface for 4 minutes at a flow rate of 50 μL/minute and their dissociation in HBS-ET running buffer was monitored for 8 minutes. Kinetic association rate constant (ka) and dissociation rate constant (kd) were determined by fitting the real-time sensorgrams to a 1:1 binding model using Scrubber 2.0c curve fitting software. Binding dissociation equilibrium constants (KD) and dissociative half-lives (t½) were calculated from the kinetic rate constants as: […]

[3] = C4-2 cells, 3 days, conjugate values corrected for payload equivalents, read-out: IC50
[4] = Table 2, payloads only, read-out: C4-2 IC50
[5] = Table 5, payloads only, read-out: C4-2 IC50
[6] = Ovcar-3 cells, 3 days, conjugate values corrected for payload equivalents, read-out: IC50
[7] = Table 2, payloads only, read-out: Ovcar3 IC50
[8] = Table 5, payloads only, read-out: Ovcar3 IC50

Molecule	IC50 (C4-2 (PSMA+) cells; [3])	C4-2 % kill (C4-2 (PSMA+) cells; Table 2, payloads only)	IC50 (C4-2 (PSMA+) cells; [4])	C4-2 % kill (C4-2 (PSMA+) cells; Table 5, payloads only)	IC50 (C4-2 (PSMA+) cells; [5])	IC50 [1]	maximum percent killing ([1]; highest concentration tested)	IC50 (Ovcar3 (Muc16+) cells; [6])	Ovcar3 % kill (Ovcar3 (Muc16+) cells; Table 2, payloads only)	IC50 (Ovcar3 (Muc16+) cells; [7])	Ovcar3 % kill (Ovcar3 (Muc16+) cells; Table 5, payloads only)	IC50 (Ovcar3 (Muc16+) cells; [8])	T47D % kill ([1]; Table 5, payloads only, highest concentration tested)	ka [2]	kd [2]	100 nM hPRLR-MMH Bound (RU) ([2]; antibody captured on anti-human Fc surface)	Kd ([2]; calculated from kinetic rate constants, read-out: KD)	Kd ([2]; read-out: KD value)
COc1cc2cc(c1Cl)N(C)C(=O)C[C@H](OC(=O)[C@H](C)N(C)C(=O)c1ccc(N)cc1)[C@]1(C)O[C@H]1[C@H](C)[C@@H]1C[C@@](O)(NC(=O)O1)[C@H](OC)/C=C/C=C(\C)C2 [Compound 27, Maytansin-N-methyl-L-alanine-4-aminobenzamide]	200 pM	84%	200 pM	84%	200 pM	100 pM	67%	60 pM	92%	90 pM	92%	90 pM	–	–	–	–	–	–
COc1cc2cc(c1Cl)N(C)C(=O)C[C@H](OC(=O)[C@H](C)N(C)C(=O)c1ccc(N)cc1F)[C@]1(C)O[C@H]1[C@H](C)[C@@H]1C[C@@](O)(NC(=O)O1)[C@H](OC)/C=C/C=C(\C)C2 [Compound 29, Maytansin-N-methyl-L-alanine-(2-fluoro-4-amino)benzamide]	–	83%	270 pM	83%	270 pM	70 pM	67%	–	93%	130 pM	93%	130 pM	67%	–	–	–	–	–
COc1cc(N)ccc1C(=O)N(C)[C@@H](C)C(=O)O[C@H]1CC(=O)N(C)c2cc(cc(OC)c2Cl)C/C(C)=C/C=C/[C@@H](OC)[C@@]2(O)C[C@H](OC(=O)N2)[C@@H](C)[C@@H]2O[C@@]12C [Compound 33, Maytansin-N-methyl-L-alanine-(2-methoxy-4-amino)benzamide]	550 pM	86%	450 pM	86%	450 pM	–	–	110 pM	93%	200 pM	93%	200 pM	–	–	–	–	–	–
COc1cc2cc(c1Cl)N(C)C(=O)C[C@H](OC(=O)[C@H](C)N(C)C(=O)c1ccc(N)c(C(F)(F)F)c1)[C@]1(C)O[C@H]1[C@H](C)[C@@H]1C[C@@](O)(NC(=O)O1)[C@H](OC)/C=C/C=C(\C)C2 [Compound 35, Maytansin-N-methyl-L-alanine-N-(3-trifluoromethyl-4-amino)benzamide]	–	84%	4 pM	84%	4 pM	–	–	–	93%	< 10 pM	93%	< 10 pM	–	–	–	–	–	–
COc1cc2cc(c1Cl)N(C)C(=O)C[C@H](OC(=O)[C@H](C)N(C)C(=O)c1cc(F)c(N)cc1Cl)[C@]1(C)O[C@H]1[C@H](C)[C@@H]1C[C@@](O)(NC(=O)O1)[C@H](OC)/C=C/C=C(\C)C2 [Compound 37, Maytansin-N-methyl-L-alanine-N-(2-chloro-4-amino-5-fluoro)benzamide]	–	86%	10 pM	86%	10 pM	–	–	–	94%	< 10 pM	94%	< 10 pM	–	–	–	–	–	–
B1	–	–	–	–	–	–	–	–	–	–	–	–	–	417000 M⁻¹ s⁻¹	0.000454 s⁻¹	38 RU	1090 pM	1090 pM

From patent publication US12297207B2, “Maytansinoid derivatives, conjugates thereof, and methods of use” (priority 2015, dated 2025)
